Results on one compound are retold here after publication PMC4540712, “Development of a clickable bimodal fluorescent/PET probe for in vivo imaging” (EJNMMI Research, 2015).

Data set [1] addresses T1, GRP receptor overexpressing PC-3 cells (Homo sapiens, UniProt P30550).
T1 construct: host or cells: PC-3 (human prostate cancer cell line)
The data set is described as follows: confocal live-cell imaging of uptake and blocking in PC-3 cells. Type of data set: cell-based. As to conditions: 37 °C, 30 min. The protocol:
To determine BODIPY-BBN uptake in vitro, PC-3 cells (1.0 × 10^4 per well) were seeded in a two-well chamber slide (Nunc™ Lab-Tek™ II Chamber Slide™ System) containing growth media (1 mL) and incubated at 37 °C for 24 h. To study the uptake of BODIPY-BBN, PC-3 cells were incubated with 5 (10 nM in PBS, 37 °C for 30 min). At the same time blocking studies were performed. PC-3 cells were pre-incubated with RM2 (1000 nM in PBS, 37 °C for 5 min) before incubation with BODIPY-BBN (10 nM in PBS, 37 °C for 30 min). After washing with media (1.0 mL), blue whole cell stain was added and incubated at room temperature for 5 min. The cells were washed with PBS (3 × 1.0 mL), living cells were imaged using an inverted confocal microscope (Leica TCS SP5 II), and data were analyzed with Fiji.
(§1) The binding of BODIPY-BBN 5 toward GRP receptor overexpressing PC-3 cells was evaluated in confocal live-cell imaging (Fig. 4a). After incubation of BODIPY-BBN 5 (10 nM, 30 min), cells were treated with blue whole cell stain (5 min) and washed with PBS. […] We also confirmed the binding affinity of BODIPY-BBN 5 using [^125I-Tyr^4]bombesin in a competitive binding assay (Fig. 4b). […] We then determined the stability of our imaging tracer in human serum (37 °C) at pre-determined time points showing >90 % intact fluorescent imaging agent after 60 min of incubation (Additional file 1: Figure S6).

A short description of another data set: stability in human serum. Type of data set: in vitro ADME. As to conditions: 37 °C, after 60 min of incubation, time points 0, 15, 30, 45, 60 min, fluorescence read-out. The protocol:
as §1
Figure S6: Percent intact fluorescent ^19F-BODIPY-BBN in human serum at different time points (0, 15, 30, 45, and 60 min) after incubation at 37 °C.

Starred links: 1 amine or outer side, 2 acyl side, 3 side chain; linkers in the order of their positions; H or OH if unused. Non-standard residues stand in square brackets, D forms with d. Residues, ends and D or L forms follow the SMILES beside them. *: point of attachment. BODIPY(FL) = CC1=CC(C)=[N+]2C1=Cc1ccc(CCC(=O)*)n1[B-]2(F)F; X1 = O=C(CCc1cn(CCOCCOCCOCCN[*:1])nn1)[*:2]; Sta = CC(C)C[C@H](N)[C@@H](O)CC(=O)O; X2 = O=C(CN1CCC(N[*:1])CC1)[*:2] Bounds are passed on as bounds.

T1 sequence (P30550 whole entry): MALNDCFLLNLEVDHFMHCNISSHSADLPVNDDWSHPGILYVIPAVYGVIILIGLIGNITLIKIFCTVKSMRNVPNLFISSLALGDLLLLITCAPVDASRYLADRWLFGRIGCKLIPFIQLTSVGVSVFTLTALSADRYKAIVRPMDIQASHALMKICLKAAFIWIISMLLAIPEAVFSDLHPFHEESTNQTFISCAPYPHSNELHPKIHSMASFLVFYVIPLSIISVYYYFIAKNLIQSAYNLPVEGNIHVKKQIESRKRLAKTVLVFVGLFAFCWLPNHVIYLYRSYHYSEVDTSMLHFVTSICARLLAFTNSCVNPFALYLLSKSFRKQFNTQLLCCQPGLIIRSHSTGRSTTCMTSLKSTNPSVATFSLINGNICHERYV

`Cc1cc(C)n2c1C=C1C=CC(CCC(=O)NCCOCCOCCOCCn3cc(CCC(=O)NC4CCN(CC(=O)N[C@H](Cc5ccccc5)C(=O)N[C@@H](CCC(N)=O)C(=O)N[C@@H](Cc5c[nH]c6ccccc56)C(=O)N[C@@H](C)C(=O)N[C@H](C(=O)NCC(=O)N[C@@H](Cc5c[nH]cn5)C(=O)N[C@@H](CC(C)C)[C@@H](O)CC(=O)N[C@@H](CC(C)C)C(N)=O)C(C)C)CC4)nn3)=[N+]1[B-]2(F)F` [BODIPY-BBN 5] ({BODIPY(FL)}-[X1][X2][dF]QWAVGH[Sta]L-NH2): the “fluorescent signal after blocking (GRP receptor specificity)” value in data set [1] (PC-3 cells pre-incubated with 100-fold excess of unlabeled GRP receptor antagonist (1000 nM, 5 min), then 10 nM probe) is recorded as “complete suppression of green fluorescent signal”. Besides, in data set [1] (PC-3 cells, 10 nM in PBS, green fluorescence), the “binding in confocal live-cell imaging” value is on record as “antagonist-specific binding”. For the same compound, the “intact fluorescent imaging agent in human serum” value in “stability in human serum” is on record as above 90%.
